Measured values published in patent US9458141B2, “Low molecular weight thyroid stimulating hormone receptor (TSHR) agonists” (The United States of America, as represented by the …, priority 2008, dated 2016).

Molecular target: T1, human TSHR (Homo sapiens, UniProt P16473)
T1 construct: expressed in transfected cells
Test: Confirmatory cAMP assay, HEK EM 293 cells stably expressing TSHR
Assay type: cell-based
Conditions: 1 h incubation, 1 mM IBMX
Excerpt: cDNA for human TSHR was amplified by PCR from hTSHR-pSVL (1) and inserted into the pcDNA3.1(−)/hygromycin vector using restriction sites XhoI and BamHI. cDNA for human LHCGR was amplified by PCR from hLHR-pGS5 (2) and was inserted into the pcDNA3.1(+)/hygromycin vector using restriction sites BamHI and XhoI. The FSHR cDNA in pcDNA3.1 was obtained from the Missouri S&T cDNA Resource Center (www.cDNA.org) and was subcloned into the pcDNA3.1(−)/hygromycin vector. Constructs were confirmed by sequencing (MWG Biotech). HEK-EM 293 cells were transfected with the cDNA of TSHR, LHCGR or FSHR using FuGENE 6 Transfection reagent (Roche Diagnostics) according to the manufacturer's protocol. Two days after transfection cells were passaged and grown in Dulbecco's modified Eagle's Medium (DMEM) supplemented with 10% fetal bovine serum, 100 units/ml penicillin and 10 μg/ml streptomycin (Life Technologies Inc.) and with hygromycin (250 μg/ml) as a selection marker. After 7 to 10 days hygromycin-resistant clones were selected, and after a few days of further growth submitted for a cAMP assay to identify clones that stably express the appropriate receptor. Cell Culture. Cells stably expressing TSHR, LHCGR or FSHR and parental HEK 293 cells were maintained in DMEM medium containing 10% FBS, 100 units/ml Penicillin, 100 μg/ml Streptomycin, at 37° C. in 5% CO2. For the cells lines stably expressing TSHR, LHCGR or FSHR, additional 250 μg/ml Hygromycin was added during the cell culture. The cells were seeded at a density of 3 to 4 million cells in a T175 flask containing 35 ml of media and were allowed to grow for 3 days to reach 80-90% confluence. A flask of HEK 293 cells at this density generally yielded 30 million cells total. Homogeneous Time Resolved Fluorescence (HTRF) cAMP Assay. Compounds were assayed using a HTRF cAMP detection kit (Cisbio, Bedford, Mass.) on both TSHR cell line and parental cell line. Briefly, 750 cells were plated in 2.5 μl/well of complete media (DMEM containing 10% FCS) in 1536 well solid bottom white plates and 20 nl/well compound in DMSO solution or controls was added. Following 30 minute incubation at room temperature, 2.5 μl/well of labeled d2 cAMP and 2.5 μl/well of anti-cAMP antibody (both diluted 1:20 in lysis buffer) were added to each well using a flying reagent dispenser (Aurora Discovery, San Diego). Plates were measured using the Envision plate reader (PerkinElmer, Boston, Mass.) with excitation at 330 nm and emissions of 615 nm and 660 nm. Compound Preparation. […] Data Analysis. […] The EC50 values of compounds were calculated from the concentration-response curves by nonlinear regression analysis using Prism software (GraphPad Software, San Diego, Calif.). Confirmatory cAMP Assay and Test for Selectivity Towards TSHR 50,000 cells/well were plated in complete media (DMEM containing 10% FCS) in 96 well plates. […] Following aspiration of the medium after incubation with compounds, cells were lysed using lysis buffer of the cAMP-Screen Direct™ System (Applied Biosystems, Cat # CSD200). The cAMP content of the cell lysate was determined using the manufacturer's protocol. […] Below is a List of Compounds that were Assayed via the Homogeneous Time Resolved Fluorescence (HTRF) cAMP Assay.

T1 sequence (P16473 21-764): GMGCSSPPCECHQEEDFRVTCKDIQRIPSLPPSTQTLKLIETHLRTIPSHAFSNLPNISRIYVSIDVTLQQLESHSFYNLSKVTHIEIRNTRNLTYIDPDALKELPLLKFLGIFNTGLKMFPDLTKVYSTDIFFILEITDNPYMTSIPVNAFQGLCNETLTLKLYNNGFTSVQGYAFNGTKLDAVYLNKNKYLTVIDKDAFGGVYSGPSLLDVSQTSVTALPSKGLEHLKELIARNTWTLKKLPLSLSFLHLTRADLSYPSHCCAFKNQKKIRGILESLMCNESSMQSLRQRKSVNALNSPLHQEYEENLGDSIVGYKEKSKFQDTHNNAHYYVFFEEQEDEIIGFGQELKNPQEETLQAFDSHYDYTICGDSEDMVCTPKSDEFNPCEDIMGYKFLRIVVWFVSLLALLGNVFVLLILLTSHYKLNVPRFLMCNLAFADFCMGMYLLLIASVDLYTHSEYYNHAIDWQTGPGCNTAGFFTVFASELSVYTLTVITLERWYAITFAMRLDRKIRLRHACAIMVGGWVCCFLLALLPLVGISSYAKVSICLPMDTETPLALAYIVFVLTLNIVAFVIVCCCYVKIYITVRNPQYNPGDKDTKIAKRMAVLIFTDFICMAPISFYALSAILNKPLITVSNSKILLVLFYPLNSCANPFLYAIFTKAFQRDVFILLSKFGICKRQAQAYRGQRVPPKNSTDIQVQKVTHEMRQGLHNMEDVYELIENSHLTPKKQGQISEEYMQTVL

Compound	EC50 [nM]
COc1ccc(C2Nc3ccccc3C(=O)N2Cc2ccco2)cc1COc1ccc(NC(C)=O)cc1 (centres unmarked) [Compound 3, N-(4-(5-(3-(Furan-2-ylmethyl)-4-oxo-1,2,3,4-tetrahydroquinazolin-2-yl)-2-methoxybenzyloxy)phenyl)acetamide]	590
COc1ccc(-c2nc3ccccc3c(=O)n2Cc2ccco2)cc1COc1ccc(NC(C)=O)cc1 [Compound 3/1, N-(4-(5-(3-(Furan-2-ylmethyl)-4-oxo-3,4-dihydroquinazolin-2-yl)-2-methoxybenzyloxy)phenyl)acetamide]	100
COc1ccc(C2Nc3ccccc3C(=O)N2Cc2ccccc2)cc1COc1ccc(NC(C)=O)cc1 (centres unmarked) [Compound 3/2, N-(4-(5-(3-Benzyl-4-oxo-1,2,3,4-tetrahydroquinazolin-2-yl)-2-methoxybenzyloxy)phenyl)acetamide]	541
COc1ccc(C2Nc3cccc(O)c3C(=O)N2Cc2ccccc2)cc1COc1ccc(NC(C)=O)cc1 (centres unmarked) [Compound 3/4, N-(4-(5-(3-Benzyl-5-hydroxy-4-oxo-1,2,3,4-tetrahydroquinazolin-2-yl)-2-methoxybenzyloxy)phenyl)acetamide]	25
COc1ccc(C2Nc3ccccc3C(=O)N2Cc2ccccc2)cc1CSc1ccc(NC(C)=O)cc1 (centres unmarked) [Compound 3/5, N-(4-(5-(3-Benzyl-4-oxo-1,2,3,4-tetrahydroquinazolin-2-yl)-2-methoxybenzylthio)phenyl)acetamide]	38
